This is an account of results in patent publication US11597708B2, “Inhibitors of heat shock factors and uses thereof” (HSF Pharmaceuticals SA, priority 2016, dated 2023).

Molecules are shown by their SMILES.

For the experiment, the target named is T1, HSF1 (Homo sapiens, UniProt Q00613).
T1 construct: functionally linked to an hsp70b promoter and therefore controlled by endogenous HSF1; endogenous in cells; host or cells: HeLa cells / HeLa-derived cell line Z74
T1 sequence (Q00613 1-529): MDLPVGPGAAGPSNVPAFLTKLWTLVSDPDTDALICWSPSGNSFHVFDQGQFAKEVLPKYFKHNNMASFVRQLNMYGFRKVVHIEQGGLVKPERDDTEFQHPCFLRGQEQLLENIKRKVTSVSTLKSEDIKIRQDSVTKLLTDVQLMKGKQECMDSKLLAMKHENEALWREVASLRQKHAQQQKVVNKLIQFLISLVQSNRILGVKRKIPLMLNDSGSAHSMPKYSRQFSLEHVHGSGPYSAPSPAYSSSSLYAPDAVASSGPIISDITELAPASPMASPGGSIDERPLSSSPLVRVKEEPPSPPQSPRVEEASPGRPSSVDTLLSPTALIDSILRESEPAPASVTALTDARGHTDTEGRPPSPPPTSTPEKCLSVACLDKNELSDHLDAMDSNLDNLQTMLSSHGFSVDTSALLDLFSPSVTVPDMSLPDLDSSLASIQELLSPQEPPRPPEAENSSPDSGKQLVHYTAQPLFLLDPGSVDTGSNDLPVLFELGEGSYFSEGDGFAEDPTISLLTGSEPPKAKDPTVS
Nature of the experiment: Z74 cell-based reporter assay: heat-induced RLuc expression controlled by endogenous HSF1. The conditions noted are these: Z74 cells; for inhibition at 12.5 µM: 12.5 μM IHSF, negative values marked *: compound enhanced rLuc activity, read-out: Inhibition of HSF1 activity at 12.5 μM IHSF [RLuc] (%); for inhibition at 25 µM: 25 μM IHSF, 2 h exposure, 43° C. 30 min, 6 h at 37° C., read-out: Inhibition of HSF1 activity at 25 μM IHSF [RLuc] (%); for IC50: inhibition of HSF1 activity [RLuc]. An excerpt:
For screening this sublibrary, a cell-based assay was developed. We opted for a cell-based assay, because a cell-free assay would have had to be a DNA-binding assay. Such an assay would have limited discovery to molecules capable of interfering with the DNA-binding function of HSF1. This was thought to be too narrow a focus, considering that three of the four cavities identified in the HSF1 DNA-binding domain are not near the DNA interaction region. A straightforward cell-based assay, in which a HSF1-responsive gene would be assayed, was considered likely to be over-inclusive. Compounds would be scored as hits that inhibit any factor that is involved in HSF1 activation or prevents HSF1 deactivation. These factors include protein kinases, activators of protein phosphatases, factors affecting HSF1 mRNA stability, HSP90, HDAC6, etc. For developing a more discriminating cell-based assay, advantage was taken of the modular nature of HSF1. […] The cell-based assay developed (see below for the particular format employed) compared transactivation by wild type HSF1 and chimeric HSF1 in cells exposed to an HSF1-activating heat treatment in the presence of a sublibrary compound. A compound was scored as a hit, if it inhibited the activity of wild type HSF1 but not of chimeric HSF1.
The cell-based assay made use of HeLa-derived cell line Z74 that stably contains a gene for chimeric transcription factor LexA-(human) HSF1 under the control of a CMV early promoter, a firefly luciferase (flue) gene driven by a promoter responsive to the latter chimeric transcription factor and a Renilla luciferase (rluc) gene functionally linked to an hsp70b promoter and therefore controlled by endogenous HSF1 (FIG. 1A). As is shown in FIGS. 1B & C, the reporter genes responded similarly to heat dose, i.e., their activation depended on both duration of heat exposure and temperature of the exposure. […] Depletion of HSF1 (and LexA-HSF1) by siRNA supported the notion that this stress regulation is mediated by HSF1 (and LexA-HSF1). Therefore, the Z74 line was well suited for use in a screening assay aimed at discovering molecules that inhibit heat-induced HSF1 activity through interaction with the transcription factor's DNA-binding domain.
The compounds of the afore-mentioned biased sublibrary were screened in cell line Z74 at 12.5 and 25 μM concentrations. Typically, Z74 cultures in 96-well plates were exposed to compound or vehicle for 2 h, heat-treated at 43.0° C. for 30 min, and incubated further for 6 h at 37° C. to allow for accumulation of the luciferases. RLuc and FLuc activities were determined, typically using the Dual-Glo® Luciferase Assay System (Promega Corp., Madison, Wis.), and reading luciferase light counts in a Wallac Microbeta Trilux-1450 Luminometer (PerkinElmer, Waltham, Mass.). IHSF 001 was one of two library compounds that inhibited RLuc expression but not FLuc expression in heat-treated Z74 cells (Table 1; FIG. 2A). Therefore, IHSF 001 is an inhibitor of HSF1 function that specifically acts through the HSF1 DNA-binding domain. […] A corroborating experiment utilized a cell line containing an hsp70b promoter-driven fluc gene. […] IHSF 001 is (E)-ethyl 4-oxo-4-(thiazol-2-ylamino)but-2-enoate. The compound can be obtained from commercial sources (e.g., AKE-PB-90340538, Akos).

As usually defined, the inhibition is how much of the control response was suppressed. The term IC50 denotes the concentration needed to halve the response being measured. A higher IC50 goes with a need for much substance.

With `CCOC(=O)/C=C/C(=O)Nc1nc2ccccc2s1` [IHSF 010, (E)-3-(Benzothiazol-2-ylcarbamoyl)-acrylic acid ethyl ester], the inhibition at 12.5 µM came to 56% and the inhibition at 25 µM amounted to 56%.

On to `CCOC(=O)/C=C/C(=O)Nc1nc(-c2ccccc2)cs1` [IHSF 012, (E)-3-(4-Phenyl-thiazol-2-ylcarbamoyl)-acrylic acid ethyl ester], for which the IC50 was 11.3 µM, the inhibition at 12.5 µM turned out to be 68% and the inhibition at 25 µM was 86%.

`CCOC(=O)/C=C/C(=O)Nc1ncc(C)s1` [IHSF 013, (E)-3-(5-Methyl-thiazol-2-ylcarbamoyl)-acrylic acid ethyl ester]: the inhibition at 12.5 µM was determined as 34% and the inhibition at 25 µM is 50%.

Consider `CCOC(=O)/C=C/C(=O)Nc1ncc(-c2ccccc2)s1` [IHSF 014, (E)-3-(5-Phenyl-thiazol-2-ylcarbamoyl)-acrylic acid ethyl ester], for which half-maximal inhibition (IC50) was put at 7.1 µM, the inhibition at 12.5 µM is 60% and the inhibition at 25 µM was found to be 89%.

Regarding `CCOC(=O)/C=C/C(=O)Nc1ncco1` [IHSF 015, (E)-3-(Oxazol-2-ylcarbamoyl)-acrylic acid ethyl ester], the inhibition at 12.5 µM came to 0% and the inhibition at 25 µM was determined as 20%.

In the case of `CCOC(=O)/C=C/C(=O)Nc1ccn(C)n1` [IHSF 016, (E)-3-(1-Methyl-1H-pyrazol-3-ylcarbamoyl)-acrylic acid ethyl ester], the inhibition at 12.5 µM turned out to be 0% and the inhibition at 25 µM was found to be 25%.

`CCOC(=O)/C=C/C(=O)Nc1ccon1` [IHSF 017, (E)-3-(Isoxazol-3-ylcarbamoyl)-acrylic acid ethyl ester]: the inhibition at 12.5 µM was 32% and the inhibition at 25 µM was determined as 37%.

Take `CCOC(=O)/C=C/C(=O)Nc1nncs1` [IHSF 018, (E)-3-([1,3,4]Thiadiazol-2-ylcarbamoyl)-acrylic acid ethyl ester]: the IC50 was 23.6 µM, the inhibition at 12.5 µM is 20% and the inhibition at 25 µM came out at 53%.

In the case of `CCOC(=O)/C=C/C(=O)Nc1ccncc1` [IHSF 020, (E)-3-(Pyridin-4-ylcarbamoyl)-acrylic acid ethyl ester], the IC50 was 23.5 µM, the inhibition at 12.5 µM stood at 30% and the inhibition at 25 µM stood at 53%.

`COC(=O)/C=C/C(=O)Nc1nccs1` [IHSF 027, (E)-3-(Thiazol-2-ylcarbamoyl)-acrylic acid methyl ester]: the inhibition at 12.5 µM is 18% and the inhibition at 25 µM worked out at 42%.

As to `CC(C)OC(=O)/C=C/C(=O)Nc1nccs1` [IHSF 028, (E)-3-(Thiazol-2-ylcarbamoyl)-acrylic acid isopropyl ester], the inhibition at 12.5 µM turned out to be 13% and the inhibition at 25 µM stood at 41%.

`CCNC(=O)/C=C/C(=O)Nc1nccs1` [IHSF 030, (E)-But-2-enedioic acid ethylamide thiazol-2-ylamide]: the inhibition at 12.5 µM amounted to 5% and the inhibition at 25 µM came to 18%.

Take `CC(C)NC(=O)/C=C/C(=O)Nc1nccs1` [IHSF 031, (E)-But-2-enedioic acid isopropylamide thiazol-2-ylamide]: the inhibition at 12.5 µM is 15% and the inhibition at 25 µM is 24%.

`CCCCOC(=O)/C=C/C(=O)Nc1nccs1` [IHSF 042, (E)-3-(Thiazol-2-ylcarbamoyl)-acrylic acid butyl ester]: the inhibition at 12.5 µM was determined as 1% and the inhibition at 25 µM is 52%.

As to `CCOC(=O)/C=C/C(=O)Nc1cc(-c2ccccc2)cs1` [IHSF 043, (E)-3-(4-Phenyl-thiophen-2-ylcarbamoyl)-acrylic acid ethyl ester], the inhibition at 12.5 µM was 32% and the inhibition at 25 µM came to 5%.

`CCOC(=O)/C=C/C(=O)Nc1cnc(-c2ccccc2)s1` [IHSF 045, (E)-3-(2-Phenyl-thiazol-5-ylcarbamoyl)-acrylic acid ethyl ester]: the inhibition at 12.5 µM was determined as 34% and the inhibition at 25 µM came to 53%.

On to `CCOC(=O)/C=C/C(=O)Nc1cc(C)no1` [IHSF 046, (E)-3-(3-Methyl-isoxazol-5-ylcarbamoyl)-acrylic acid ethyl ester], for which the inhibition at 12.5 µM was determined as 33% and the inhibition at 25 µM came out at 70%.

In the case of `CCOC(=O)/C=C/C(=O)Nc1ccnc(C)c1` [IHSF 048, (E)-3-(2-Methyl-pyridin-4-ylcarbamoyl)-acrylic acid ethyl ester], the inhibition at 12.5 µM was 37% and the inhibition at 25 µM was 67%.

`CCOC(=O)/C=C/C(=O)Nc1nc(C2CC2)cs1` [IHSF 053, (E)-3-(4-Cyclopropyl-thiazol-2-ylcarbamoyl)-acrylic acid ethyl ester]: the inhibition at 12.5 µM turned out to be 15% and the inhibition at 25 µM was determined as 29%.

For the molecule `CCOC(=O)/C=C/C(=O)Nc1nc(-c2ccccn2)cs1` [IHSF 054, (E)-3-(4-Pyridin-2-yl-thiazol-2-ylcarbamoyl)-acrylic acid ethyl ester], the half-maximal inhibitory concentration (IC50) was 20.2 µM, the inhibition at 12.5 µM worked out at 22% and the inhibition at 25 µM came to 69%.

With `CCOC(=O)/C=C/C(=O)Nc1nc(-c2cccnc2)cs1` [IHSF 055, (E)-3-(4-Pyridin-3-yl-thiazol-2-ylcarbamoyl)-acrylic acid ethyl ester], the IC50 was 18.7 µM, the inhibition at 12.5 µM turned out to be 27% and the inhibition at 25 µM was 74%.

For the molecule `CCOC(=O)/C=C/C(=O)Nc1nc(-c2ccncc2)cs1` [IHSF 056, (E)-3-(4-Pyridin-4-yl-thiazol-2-lcarbamoyl)-acrylic acid ethyl ester], the midpoint of inhibition, the IC50, lay at 19.8 µM; the inhibition at 12.5 µM came out at 35%; the inhibition at 25 µM is 61%.

On to `CCN(CC)C(=O)/C=C/C(=O)Nc1nc(C)cs1` [IHSF 060, (E)-But-2-enedioic acid diethyl-amide (4-methyl-thiazol-2-yl)-amide], for which the inhibition at 12.5 µM stood at 16% and the inhibition at 25 µM amounted to 19%.

As to `Cc1csc(NC(=O)/C=C/C(=O)N(C)C)n1` [IHSF 061, (E)-But-2-enedioic acid dimethyl-amide (4-methyl-thiazol-2-yl)-amide], the inhibition at 12.5 µM is 12% and the inhibition at 25 µM came to 18%.

Consider `CCOC(=O)/C=C/C(=O)N(C)c1nccs1` [IHSF 070, (E)-3-(Methyl-thiazol-2-yl-carbamoyl)-acrylic acid ethyl ester], for which the IC50 is 5.7 µM, the inhibition at 12.5 µM was 72% and the inhibition at 25 µM amounted to 90%.

As for `CCOC(=O)/C=C/C(=O)Nc1ccnc(-c2ccncc2)c1` [IHSF 076, (E)-3-([2,4′]Bipyridinyl-4-ylcarbamoyl)-acrylic acid ethyl ester], the inhibition at 12.5 µM worked out at 56% and the inhibition at 25 µM was 66%.
